Results: ChEMBL document CHEMBL5346981, “Structure-Guided Design and Synthesis of a Pyridazinone Series of Trypanosoma cruzi Proteasome Inhibitors” (J Med Chem, 2023)
Calls of active or inactive are those of the source. No cut-off for these calls is given here.

System: not listed separately
Test: Cytotoxicity against African green monkey Vero E6 cells assessed as reduction in cell viability
Format: toxicity, cell-based
Conditions: African green monkey (Chlorocebus sabaeus)

Q: Which EC50 does the source give for `O=C(NC1CC1)c1ccc(F)c(NC(=O)c2ccc(=O)n(Cc3ccccc3)n2)c1` here?
A: Its EC50 is > 50.1 µM.

Q: With `COc1ccc(Cn2nc(C(=O)Nc3ccc(F)c(C(=O)NCCN4CCOCC4)c3)ccc2=O)cc1` as the compound, how does the EC50 read?
A: Its EC50 is > 50.1 µM.

Q: Which EC50 does the source give for `O=C(Nc1ccc(F)c(-c2cn3nc(N4CCOCC4)cnc3n2)c1)N1CCCC1` here?
A: The EC50 was > 50.1 µM.

Q: For `O=C(Nc1ccc(F)c(C(=O)NC2CC2)c1)c1ccc(=O)n(CC2CCCCC2)n1`, which EC50 is on record?
A: Its EC50 is > 50.1 µM.

Q: For `COc1ncc(Cn2nc(C(=O)Nc3ccc(F)c(C(=O)NC4CC4)c3)ccc2=O)cc1F`, which EC50 is on record?
A: Its EC50 is > 50.1 µM.

Q: With `CN(C(=O)c1ccc(=O)n(Cc2ccccc2)n1)c1cccc(C(=O)NC2CC2)c1` as the compound, how does the EC50 read?
A: Its EC50 is > 50.1 µM.

Q: With `COc1ccc(Cn2nc(C(=O)Nc3ccc(F)c(C(=O)NC4CC4)c3)ccc2=O)cc1C#N` as the compound, how does the EC50 read?
A: The EC50 was > 50.1 µM.

Q: For `COc1cccc(Cn2nc(C(=O)Nc3ccc(F)c(C(=O)NC4CC4)c3)ccc2=O)c1`, which EC50 is on record?
A: The EC50 was > 50.1 µM.

Q: For `O=C(Nc1ccc(F)c(C(=O)NC2CC2)c1)c1ccc(=O)n(Cc2ccc(Cl)c(F)c2)n1`, which EC50 is on record?
A: The EC50 was > 50.1 µM.

Q: For `COc1ccc(Cn2nc(C(=O)Nc3ccc(F)c(C(=O)NC4CC4)c3)ccc2=O)cc1Cl`, which EC50 is on record?
A: Its EC50 is > 50.1 µM.

Q: For `O=C(Nc1ccc(F)c(C(=O)NC2CC2)c1)c1ccc(=O)n(Cc2ccccc2)n1`, which EC50 is on record?
A: The EC50 was > 50.1 µM.

Q: For `O=C(Nc1cccc(C(=O)NC2CC2)c1)c1ccc(=O)n(Cc2ccccc2)c1`, which EC50 is on record?
A: Its EC50 is > 50.1 µM.

Q: Which EC50 does the source give for `COc1ccc(Cn2nc(C(=O)Nc3ccc(F)c(C(=O)NC4CC4)c3)ccc2=O)cc1` here?
A: Its EC50 is > 50.1 µM.

System: Blood
Test: T>EC99 in Balb/c mouse assessed as time of blood total concentration in mouse exceeding EC99 for antiprotozoal activity against intracellular Trypanosoma cruzi infected in Vero cells at 50 mg/kg, po and measured upto 24 hrs by UPLC-MS/MS analysis
Format: ADME, organism-based
Conditions: in vivo

Q: Which “T>EC99” value does the source give for `COc1ccc(Cn2nc(C(=O)Nc3ccc(F)c(C(=O)NC4CC4)c3)ccc2=O)cc1F` here?
A: Its value is 14 h.

System: Blood
Test: T>EC99 in Balb/c mouse infected with Trypanosoma cruzi X10/7 A1 assessed as time of blood free drug concentration in mouse exceeding EC99 for antiprotozoal activity against intracellular Trypanosoma cruzi infected in Vero cells at 50 mg/kg, po and measured after 20 days by UPLC-MS/MS analysis
Format: ADME, organism-based
Conditions: in vivo, 480 h, time 20 day

Q: With `CNC(=O)c1cc(NC(=O)c2ccc(=O)n(Cc3ccc(OC)cc3)n2)ccc1F` as the compound, how does the “T>EC99” value read?
A: Its value is < 2 h.

System: Trypanosoma cruzi
Test: Antiprotozoal activity against intracellular Trypanosoma cruzi X10/7 A1 amastigotes infected in Vero cells assessed as parasite growth inhibition incubated for 72 to 96 hrs by Hoechst 33342 staining based analysis
Format: functional, organism-based
Conditions: X10/7 A1, Vero

Q: For `COc1ncc(Cn2nc(C(=O)Nc3ccc(F)c(C(=O)NC4CC4)c3)ccc2=O)cc1F`, which EC50 is on record?
A: The EC50 was 31600 nM.

Q: For `COc1ccc(Cn2nc(C(=O)Nc3ccc(F)c(C(=O)N[C@H](C)CO)c3)ccc2=O)cc1F`, which EC50 is on record?
A: The EC50 was 316 nM.

Q: With `O=C(Nc1ccc(F)c(C(=O)NC2CC2)c1)c1ccc(=O)n(Cc2ccc(Cl)c(F)c2)n1` as the compound, how does the EC50 read?
A: The EC50 was 251 nM.

Q: With `O=C(Nc1ccc(F)c(C(=O)NC2CC2)c1)c1ccc(=O)n(Cc2ccccc2)n1` as the compound, how does the EC50 read?
A: Its EC50 is 2510 nM.

Q: Which EC50 does the source give for `O=C(NC1CC1)c1cccc(NC(=O)c2ccc(=O)n(Cc3ccccc3)n2)c1` here?
A: The EC50 was 10000 nM.

System: Trypanosoma cruzi
Test: Antitrypanosomal activity against Trypanosoma cruzi X10/7 A1 infected in Balb/c mouse assessed as parasite clearance at 100 mg/kg, po bid for 20 days by bioluminescence analysis
Format: functional, organism-based
Conditions: time 20.0 day

Q: With `O=C(Cn1ccnc1[N+](=O)[O-])NCc1ccccc1` as the compound, how does the Activity read?
A: Its Activity is “Active”.

System: not listed separately
Test: Inhibition of chymotrypsin like activity in Trypanosoma cruzi Silvio X10/7 proteasome using Suc-LLVY-Rho-110-D-Proline peptide as substrate preincubated for 10 mins followed by substrate addition and measured for 30 mins by fluorescence based microplate reader analysis
Conditions: not given

Q: For `O=C(NC1CC1)c1ccc(F)c(NC(=O)c2ccc(=O)n(Cc3ccccc3)n2)c1`, which pIC50 is on record?
A: The pIC50 was 5.8.

Q: Which pIC50 does the source give for `COc1ccc(Cn2nc(C(=O)Nc3ccc(F)c(C(=O)NCCN4CCOCC4)c3)ccc2=O)cc1` here?
A: Its pIC50 is 6.9.

Q: With `O=C(Nc1ccc(F)c(-c2cn3nc(N4CCOCC4)cnc3n2)c1)N1CCCC1` as the compound, how does the pIC50 read?
A: Its pIC50 is 7.3.

Q: With `O=C(Nc1ccc(F)c(C(=O)NC2CC2)c1)c1ccc(=O)n(CC2CCCCC2)n1` as the compound, how does the pIC50 read?
A: The pIC50 was 6.4.

Q: With `COc1ccc(Cn2nc(C(=O)Nc3ccc(F)c(C(=O)N[C@H](C)CO)c3)ccc2=O)cc1F` as the compound, how does the pIC50 read?
A: The pIC50 was 7.3.

Q: With `CN(C(=O)c1ccc(=O)n(Cc2ccccc2)n1)c1cccc(C(=O)NC2CC2)c1` as the compound, how does the pIC50 read?
A: Its pIC50 is < 4.

Q: Which pIC50 does the source give for `COc1ccc(Cn2nc(C(=O)Nc3ccc(F)c(C(=O)NC4CC4)c3)ccc2=O)cc1C#N` here?
A: The pIC50 was 8.

Q: Which pIC50 does the source give for `COc1cccc(Cn2nc(C(=O)Nc3ccc(F)c(C(=O)NC4CC4)c3)ccc2=O)c1` here?
A: Its pIC50 is < 4.

Q: For `COc1ccc(Cn2nc(C(=O)Nc3ccc(F)c(C(=O)N[C@H]4C[C@H](OC)C4)c3)ccc2=O)cc1F`, which pIC50 is on record?
A: Its pIC50 is 8.2.

Q: Which pIC50 does the source give for `O=C(Nc1ccc(F)c(C(=O)NC2CC2)c1)c1ccc(=O)n(Cc2ccc(Cl)c(F)c2)n1` here?
A: The pIC50 was 7.6.

Q: For `COc1ccc(Cn2nc(C(=O)Nc3ccc(F)c(C(=O)NC4CC4)c3)ccc2=O)cc1Cl`, which pIC50 is on record?
A: The pIC50 was 8.5.

Q: Which pIC50 does the source give for `O=C(Nc1ccc(F)c(C(=O)NC2CC2)c1)c1ccc(=O)n(Cc2ccccc2)n1` here?
A: The pIC50 was 6.8.

Q: For `O=C(Nc1cccc(C(=O)NC2CC2)c1)c1ccc(=O)n(Cc2ccccc2)c1`, which pIC50 is on record?
A: Its pIC50 is 5.8.

Q: Which pIC50 does the source give for `CNC(=O)c1cc(NC(=O)c2ccc(=O)n(Cc3ccc(OC)c(F)c3)n2)ccc1F` here?
A: Its pIC50 is 8.2.

Q: For `COc1ccc(Cn2nc(C(=O)Nc3ccc(F)c(C(=O)N[C@H]4C[C@@H](N5CCOCC5)C4)c3)ccc2=O)cc1F`, which pIC50 is on record?
A: Its pIC50 is 8.1.

Q: Which pIC50 does the source give for `O=C(NC1CC1)c1cccc(NC(=O)c2ccc(=O)n(Cc3ccccc3)n2)c1` here?
A: The pIC50 was 6.2.

Q: For `COc1ccc(Cn2nc(C(=O)Nc3ccc(F)c(C(=O)N[C@H]4C[C@H](N5CCOCC5)C4)c3)ccc2=O)cc1F`, which pIC50 is on record?
A: Its pIC50 is 8.1.

Q: Which pIC50 does the source give for `COc1ccc(Cn2nc(C(=O)Nc3ccc(F)c(C(=O)NC4CC4)c3)ccc2=O)cc1F` here?
A: The pIC50 was 8.1.

Q: For `CN(C(=O)c1cccc(NC(=O)c2ccc(=O)n(Cc3ccccc3)n2)c1)C1CC1`, which pIC50 is on record?
A: Its pIC50 is 4.7.

Q: With `COc1ccc(Cn2nc(C(=O)Nc3ccc(F)c(C(=O)NC4CC4)c3)ccc2=O)cc1` as the compound, how does the pIC50 read?
A: The pIC50 was 7.5.

System: Blood
Test: T>EC99 in Balb/c mouse infected with Trypanosoma cruzi X10/7 A1 assessed as time of blood free drug concentration in mouse exceeding EC99 for antiprotozoal activity against intracellular Trypanosoma cruzi infected in Vero cells at 50 mg/kg, po and measured after 1 day by UPLC-MS/MS analysis
Format: ADME, organism-based
Conditions: in vivo, 24 h

Q: Which “T>EC99” value does the source give for `CNC(=O)c1cc(NC(=O)c2ccc(=O)n(Cc3ccc(OC)cc3)n2)ccc1F` here?
A: The value was 5 h.
